Tests used:
Suv39H1 and Suv39H2 = conditions: cited from earlier work
[1] = system: patient-derived TMZ-resistant glioblastoma (GBM) cell line; assay: Spheroid cell confluence, co-treatment with TMZ; type: cell-based, human
Protocol: FIGS. 13A and 13B depict the response of a patient-derived TMZ-resistant glioblastoma (GBM) cell line to TMZ (Temozolomide). The cells were grown in suspension into spheroids after which they were treated with TMZ (100 uM), chaetocin (50 uM) or both (TMZ 100 uM, chaetocin 50 uM were administered at the same time). Cell confluence, an assay for spheroid size, was measured. The top graph depicts the response of the TMZ-resistant cell line to TMZ (100 uM) alone. Bottom graph depicts the response of the TMZ-resistant cell line to single agent and double agent treatments.
FIG. 14 depicts the response of a patient-derived TMZ-resistant glioblastoma (GBM) cell line to TMZ (Temozolomide). The cells were grown in suspension into spheroids after which they were treated with TMZ (50, 100, 200, 400 μM), chaetocin (50 uM) or both (TMZ at 50, 100, 200, or 400 μM together with chaetocin at 50 uM). […] Cell confluence, an assay for spheroid size, was measured.
A short exposure to chaetocin is sufficient to cause an epigenetic change, reprogramming mesenchymal, TIC-rich cancer cells into an epithelial fate while sensitizing them to chemotherapy. […] Cell confluence, an assay for spheroid size, was measured to determine if cell growth was inhibited (flat curve) or spheroid sizes were reduced (indicator of cell death and spheroid shrinkage). […]

HMLE-TWIST cells [2] = assay: RNA-seq after two days of chaetocin and two days after removal (Enrichr); type: cell-based, human; conditions: versus DMSO, cells found to have mycoplasma infection
Protocol: Briefly, HMLE-TWIST cells were treated for two days with increasing doses of chaetocin (0.1, 0.15, 0.2, 0.5 uM). The cells were then washed and incubated for an additional 2 days in chaetocin-free media. Cells were collected before chaetocin treatment and at the 2-day and 4-day timepoints. Total RNA was extracted and subjected to deep sequencing. All chaetocin-treated transcriptomes were compared to cells treated with DMSO for 2 and 4 days which served as controls.
Using FACS (see FIGS. 3A-3X), it was shown that mesenchymal, TIC-rich HMLE-TWIST cells treated with increasing doses of chaetocin lose their mesenchymal properties. […] All transcriptomes were compared to the corresponding DMSO-treated controls.
The results for two representative chaetocin concentrations ([…]) are shown. Other concentrations produced a highly similar list of pathways. Only pathways whose enrichment is associated with an adjusted p value of less than 0.05 are indicated. Pathways listed in italicized font are those which have a known role in promoting the formation of the mesenchymal state in published literature. The pathways marked with an asterisk in tables above are those having known roles as tumor suppressors.
The results for two representative chaetocin concentrations ([…]) are shown. Other concentrations produced a highly similar list of pathways. […]

HMLE-TWIST cells [3] = conditions: 20, 50, 100 nM for 5 or 15 hours, two days chaetocin-free, then doxorubicin
Protocol: Doxorubicin was added after two days and cell death was assayed with cleaved caspase-3 intensity.
To determine if EMT reversal with chaetocin can sensitize TIC-rich breast cancer cells, namely HMLE-TWIST cells, to conventional chemotherapeutic agents, cells were treated for 5 or 15 hours with different concentrations of chaetocin (20 nM, 50 nM, and 100 nM), as is schematized in FIG. 4A. Cells were then washed and incubated in chaetocin-free media for two days. Doxorubicin was then added, and cell death was assayed using FACS analysis of caspase-3 cleavage two days after doxorubicin addition.

[4] = system: 786-0, A549 and HMLE-TWIST cells; assay: Order of chaetocin and chemotherapy, caspase-3 cleavage; type: cell-based, human
Protocol: FIGS. 4D-4E show a set of bar plots and schematics of experiments in which chaetocin (80 nM) was administered for 15 hours either alone, two days before (FIG. 4E) or after a 2 day treatment with a chemotherapeutic drug (FIG. 4D; 300 nM cisplatin or 10 nM Doxorubicin) to 786-0 clear cell renal carcinoma cells, A549 lung cancer cells, and HMLE-TWIST (E-Twist) breast cancer cells. Cell death was assayed with cleaved caspase 3 fluorescent intensity. These experiments were designed to test the prediction of an epigenetic model for chaetocin-mediated reversal of chemotherapy resistance, namely that chaetocin must be added transiently for a short duration (15 hours) 2 days prior to chemotherapy to sensitize the cells to treatment. If the order was reversed (FIG. 4D), there should be no effect. The results of FIGS. 4A-4E indicate that chaetocin primes cancer cells for apoptotic death by chemotherapy through epigenetic reversal of chemotherapy resistance.
In a separate set of experiments, to test the generality of chaetocin in reversing the chemotherapy resistance of mesenchymal, TIC-rich cancers, well-characterized mesenchymal TIC-rich cell lines from ccRCC 786-0 and lung cancer cells (A549) were used along with HMLE-TWIST cells described above. […]

## CN1C(=O)[C@@]23C[C@]4([C@]56C[C@@]78SS[C@](CO)(C(=O)N7[C@H]5Nc5ccccc56)N(C)C8=O)c5ccccc5N[C@@H]4N2C(=O)[C@@]1(CO)SS3 [chaetocin]
Suv39H1 and Suv39H2
  inhibitor specificity: specific inhibitor of Suv39H1 and Suv39H2 heterochromatin proteins
[1]; chaetocin 50 uM with TMZ 100 uM added at the same time
  sensitization to TMZ (cell confluence / spheroid size): sensitization of the TMZ-resistant cell line to TMZ treatment
[1]; chaetocin 50 uM with TMZ 50, 100, 200, 400 uM added at the same time
  sensitization to TMZ (cell confluence / spheroid size): sensitizes the cells to TMZ treatment versus single treatment with TMZ or chaetocin
HMLE-TWIST cells [2]; 0.1, 0.15, 0.2, 0.5 uM for two days
  pathways changed after two days of treatment: repression of several mesenchymal pathways and an increase in DNA repair and two important tumor suppressing pathways, p53 and Rb
HMLE-TWIST cells [2]; 2 days after chaetocin removal
  persistence of transcriptional changes: transcriptional changes persist after chaetocin removal
HMLE-TWIST cells [3]
  reversal of resistance to doxorubicin (caspase-3 cleavage): reverses chemotherapy resistance of mesenchymal, TIC-rich HMLE-TWIST cells to doxorubicin
[4]; 80 nM for 15 hours, 2 days before cisplatin or doxorubicin
  sensitization to chemotherapy (caspase-3 cleavage): sensitizes them to chemotherapeutic killing
[4]; order reversed: chaetocin after chemotherapy
  sensitization to chemotherapy (caspase-3 cleavage): did not produce similar chemotherapeutic killing of cells

From patent US12396996B2, “Compounds, pharmaceutical compositions, and methods of their use in reversing cancer chemoresistance” (priority 2019, dated 2025)
